{"source": "patent US9157062B2", "about": "“Compositions and methods for promoting the generation of PDX1+ pancreatic cells” (President and Fellows of Harvard College, priority 2008, dated 2015)", "key": {"[1]": {"tested_on": "HUES8-derived definitive endoderm population", "experiment": "Pancreatic specification of the hESC-derived definitive endoderm population (Pdx1+ cells)", "type": "cell-based, human", "conditions": "definitive endoderm population with 70% Sox17+ cells, 4 days; 300 nM ILV, 50 ng/ml FGF10", "protocol": "FIG. 6c are results showing that ILV directs the specification of definitive endoderm population toward pancreatic lineage (definitive endoderm population was derived from HUES8 after 1 day treatment with 25 ng/ml Wnt3a and 100 ng/ml Activin A for 1 day and 100 ng/ml Activin A for additional 2 days; then, the definitive endoderm population was treated with 300 nM ILV or 300 nM ILV+50 ng/ml FGF10 for additional 4 days);\n(§1) Secondly, ILV was examined on the definitive endoderm population containing 70% Sox17^+ cells derived from HUES8 by Wnt3a/Activin treatment (D'Amour et al., 2006). […] Thus, ILV functions by inducing pancreatic specification of hESC-derived definitive endoderm population."}, "[2]": {"tested_on": "HUES8 cells", "experiment": "Differentiation of HUES8 cells to definitive endoderm (Sox17 immunostaining)", "type": "cell-based, human", "conditions": "300 nM ILV, 3 days, in the presence or absence of Wnt3a/Activin", "protocol": "ILV was next tested at different steps of the hESC differentiation process (see FIG. 1a). ILV was tested on the differentiation of HUES8 cells to definitive endoderm population, which was assessed by immunostaining with Sox17 antibody.\nas §1"}, "[3]": {"tested_on": "hESC-derived population (Pdx1+ cells)", "experiment": "ILV titration and test on other hESC lines, Pdx1+ cells", "type": "cell-based, human", "protocol": "(§2) To generate a starting population, HUES cells were cultured on MEF feeder cells until 80-90% confluent, then treated with 25 ng/ml Wnt3a (R&D systems)+100 ng/ml Activin A (R&D systems) in advanced RPMI (A-RPMI, Invitrogen) supplemented with 1×L-Glu and 1×PS for 1 day, and then 100 ng/ml Activin A in A-RPMI supplemented with 1×L-Glu, 1×PS and 0.2% FBS (Invitrogen). Two days later, the media was changed to 50 ng/ml FGF10 (R&D systems)+0.25 μM KAAD-CYC (Calbiochem) in A-RPMI supplemented with 1×L-Glu, 1×PS and 2% FBS and maintained for additional 2 days. Cells were then transferred to 50 ng/ml FGF10+0.25 μM KAAD-CYC+2 μM RA (Sigma) in DMEM supplemented with 1×L-Glu, 1×PS, 1×B27 (Invitrogen) and cultured for an additional 4 days. ILV was obtained from Axxora, KAAD-CYC, TPB, PMA, BISI, Gö 6983, U0126 and PD98059 were obtained from Calbiochem and RA were obtained from Sigma.\n(§3) Cells were fixed with 10% formalin solution (Sigma) for 20 min at room temperature. Immunostaining was carried out with standard protocols. The following primary antibodies were used: goat anti-Pdx1 (1:500; R&D system); rabbit anti-FOXA2 (1:500; Upstate); rabbit anti-HNF6 (1:200; Santa Cruz Biotech); guinea pig anti-insulin (1:1000; Dako); rabbit anti-c-peptide (1:500; Linco); rabbit anti-amylase (1:200, Sigma); goat anti-HNF1β (1:100, Santa Cruz Biotech); and biotinylated DBA (1:400; Vector Lab). Alexa-488-, Alexa-555, and Alexa-647-conjugated donkey antibodies against mouse, rabbit, guinea pig and goat, and Pacific Blue conjugate-streptavidin (Invitrogen) were used at 1:300 dilution.\nAdditional experiments were carried out to optimize treatment to obtain more Pdx1^+ cells. […] Secondly, since hESC lines vary in their differentiation potentials (Osafune et al., 2008), ILV was tested on other hESC lines and shown to be effective on HUES 2, 4 and 8. After 4 days treatment with ILV, 26.9±2.8% cells of HUES8-derived population are positively stained by Pdx1 antibody (FIG. 2b), making it the most responsive of the lines tested."}, "[4]": {"tested_on": "HUES8-derived population (Pdx1+ cells)", "experiment": "Pdx1 antibody staining of treated HUES8-derived population", "type": "cell-based, human", "conditions": "HUES8-derived population, 4 days; 300 nM ILV and/or 50 ng/ml FGF10", "protocol": "as §2, §3\nTo determine whether PKC signaling is being activated in HUES-derived cells, HUES8-derived definitive endoderm population was treated with two PKC agonists, TPB ((2S,5S)-(E,E)-8-(5-(4-(trifluoromethyl)phenyl)-2,4-pentadienoylamino)benzolactam) and PMA (phorbol-12-myristate-13-acetate), in the absence of ILV. […] Furthermore, HUES8-derived population was treated with two PKC antagonists, BISI (Bisindolylmaleimide I) and Gö 6983, in the presence of ILV.\nExperiments were performed to monitor downstream signaling by PKC. Since ERK signaling has been reported to be regulated by PKC (Ueda et al., 1996), the activity of ERK signaling was examined with Western blotting to detect the phosphorylation of ERK1/2 at Thr-202/Tyr-204."}, "[5]": {"tested_on": "protein kinase C (PKC) signaling", "conditions": "some cell lines; Heikkila and Akerman, 1989; Hirota et al., 1987; cited from earlier work"}}}
{"substance": "(−)-Indolactam V [ILV]", "values": [{"measurement": "Pdx1+ cells", "setting": "[1]", "result": "21.5±2.4", "unit": "%"}, {"measurement": "differentiation to definitive endoderm (Sox17) versus DMSO control", "setting": "[2]", "result": "no detectable difference"}, {"measurement": "effect on other hESC lines", "setting": "[3]; HUES 2, 4 and 8", "result": "effective"}, {"measurement": "toxicity", "setting": "[3]; at 300 nM", "result": "no detectable toxicity"}, {"measurement": "concentration of highest efficiency", "setting": "[3]; titration of ILV from 20 nM to 5 μM", "result": 300, "unit": "nM"}, {"measurement": "EC50", "setting": "[3]; titration of ILV from 20 nM to 5 μM, read-out: EC50 (dose-dependent increase of Pdx1+ cells)", "result": 142, "unit": "nM"}, {"measurement": "percentage of cells stained by Pdx1 antibody", "setting": "[4]", "result": "26.9±2.8", "unit": "%"}, {"measurement": "PKC signaling", "setting": "[5]", "result": "activates"}]}
